Legend:
[1] = system: southern root-knot nematode (Meloidogyne incognita); assay: Nematocidal test on the southern root-knot nematode, pot-grown melon seedlings; assay type: in vivo; design: key: A: no root knots.; B: root knots are present but their number is definitely smaller than that for untreated plot.; C: root knots are present in an equivalent number to or a larger number than that for untreated plot; conditions: 30 ppm emulsion dilution, 1 ml injected at foot of melon seedlings; 8 days after inoculation
Method: Nematocidal Test on the Southern Root-Knot Nematode (Meloidogyne incognita)
An emulsion comprising each compound listed in Table 1 as an active ingredient was prepared as directed in Preparation Example 1, and diluted to obtain active ingredient concentrations of 300 ppm and 30 ppm. Each of these dilutions (1 ml) was applied to the foots of pot-grown melon seedlings by injection; 1 day after application of the dilution, an aqueous suspension of southern root-knot nematodes (about 500 nematodes/ml) was inoculated (soil injection), to a treated plot and an untreated plot and the pots were placed in a 25° C. greenhouse. Eight days after the inoculation, the roots were washed with water and examined for the number of root knots, and the effects were determined according to the following rating criteria.
• A: no root knots. • B: root knots are present but their number is definitely smaller than that for untreated plot. • C: root knots are present in an equivalent number to or a larger number than that for untreated plot.

[2] = system: soybean cyst nematode (Heterodera grycines); assay: Nematocidal test on the soybean cyst nematode, treated soil with soybean; assay type: in vivo; design: key: A: no cysts.; B: cysts are present but their number is definitely smaller than that for untreated plot.; C: cysts are present in an equivalent number to or a larger number than that for untreated plot; conditions: 7.5 mg wettable powder (1.5 mg active ingredient per kg soil); 40 days after seeding
Method: Nematocidal Test on the Soybean Cyst Nematode (Heterodera grycines)
A wettable powder comprising each compound listed in Table 1 as an active ingredient was prepared as directed in Preparation Example 4, and 75 mg and 7.5 mg were weighed out so that the active ingredient content would be 15 mg and 1.5 mg per kg soil; these agents were mixed in soil (1000 g) contaminated with soybean cyst nematodes in a plastic bag. The treated soil was filled in pots, soybean seeds were sown, and the pots were placed in a glass greenhouse. Forty days after the seeding, the soil on the roots was put down, the number of cysts was examined, and the effect was determined according to the rating criteria shown below.
• A: no cysts. • B: cysts are present but their number is definitely smaller than that for untreated plot. • C: cysts are present in an equivalent number to or a larger number than that for untreated plot.

For `O=C(NCCc1ncc(C(F)(F)F)cc1Cl)c1ccccc1C(F)(F)F` [Compound 7, N-[2-(3-chloro-5-trifluoromethylpyridin-2-yl)ethyl]-2-trifluoromethylbenzamide], the “rating (number of root knots)” value [1] was “A” and the “rating (number of cysts)” value [2] was “A”.
